Data as given in PubChem BioAssay (NCI).
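96-well plates; 48 h exposure; 5 concentrations. Endpoints by linear interpolation between flanking doses. Not reached: highest tested concentration assigned. TGI: concentration producing complete growth inhibition.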

What was measured:
Experiment in all cases: DTP human tumour cell line panel, 48 h
[1] = test system: HS 578T breast
[2] = test system: MOLT-4 leukemia
[3] = test system: HT29 colon
[4] = test system: ACHN renal
[5] = test system: IGROV1 ovarian
[6] = test system: A498 renal
[7] = test system: MCF7 breast
[8] = test system: UACC-257 melanoma
[9] = test system: SF-539 CNS
[10] = test system: NCI-H460 lung
[11] = test system: SK-MEL-5 melanoma
[12] = test system: SW-620 colon
[13] = test system: DU-145 prostate
[14] = test system: U251 CNS
[15] = test system: MDA-N
[16] = test system: MALME-3M melanoma
[17] = test system: MDA-MB-435
[18] = test system: UO-31 renal
[19] = test system: NCI-H522 lung

SMILES	TGI [1] [µM]	TGI [2] [µM]	TGI [3] [µM]	TGI [4] [µM]	TGI [5] [µM]	TGI [6] [µM]	TGI [7] [µM]	TGI [8] [µM]	TGI [9] [µM]	TGI [10] [µM]	TGI [11] [µM]	TGI [12] [µM]	TGI [13] [µM]	TGI [14] [µM]	TGI [15] [µM]	TGI [16] [µM]	TGI [17] [µM]	TGI [18] [µM]	TGI [19] [µM]
CCCC(=O)O[C@H]1C=C2C[C@@]34SS[C@]5(CC6=C[C@H](OC(C)=O)[C@@H]7O[C@@H]7[C@H]6N5C3=O)C(=O)N4[C@@H]2[C@H]2O[C@H]21	18.6	1.91	0.0166	0.0391	0.0499	0.0697	0.226	0.0746	0.932	0.379	0.655	0.671	0.362	0.113	0.0314	0.0239	0.0241	0.173	–
O=C(/C=C1\C[C@H]2C=Nc3ccccc3C(=O)N2C1)NCCCCNC(=O)/C=C1\C[C@H]2C=Nc3ccccc3C(=O)N2C1	> 88.7	–	31.4	12.6	27.8	32.9	35.1	27.1	30.5	37.5	27.1	7.58	29.7	11.3	24.3	18	21	5.77	3.57
O=C1O[C@H]2[C@H](O)[C@@H](OC(=O)c3cc(O)c(O)c4c3[C@@H]3C1=CC(=O)C(O)(O)C3(O)O4)[C@H](OC(=O)c1cc(O)c(O)c(O)c1)O[C@@H]2CO (some centres not stated)	> 100	> 100	> 100	> 100	> 100	> 100	> 100	> 100	–	> 100	> 100	> 100	> 100	> 100	> 100	> 100	> 100	> 100	> 100
N#CC(C#N)=C(N)/C(C#N)=C/c1ccc2ccccc2n1	65	97.9	35.9	39.6	38.2	> 100	> 100	> 100	–	> 100	51	–	> 100	–	> 100	> 100	> 100	30.9	–
CCN(CC)CCCn1c(=O)c2ccccc2n2c3c(=O)n(C)c(=O)n(C)c3nc12	45.6	8.92	24	4.17	26.2	–	> 100	26.2	22	4.06	15	29.1	10.6	23.3	28	21.4	27.5	17.7	21.9
O=C(N/N=C/c1ccc([N+](=O)[O-])o1)c1ccc(C(=O)N/N=C/c2ccc([N+](=O)[O-])o2)cc1	> 100	> 100	> 100	> 100	> 100	> 100	48.9	–	38.3	–	55.6	> 100	> 100	> 100	50.2	48.7	30.9	> 100	> 100
CC1=CCC2C3(C)CCC2(C(C)C)C1C3 (configuration not stated) (tested in a mixture with another compound)	38.2	75.3	32.4	36.9	35.1	89.4	34.3	99.7	87.4	32.9	–	53.7	68	50.8	> 100	> 100	88.2	82.3	39.3
CCCCSC1=N/C(=C\c2ccc(N(C)C)cc2)C(NN)=N1	> 100	> 100	> 100	> 100	> 100	> 100	> 100	> 100	–	> 100	–	> 100	> 100	> 100	> 100	> 100	> 100	–	> 100
[N-]=[N+]=Nc1c(C=O)c(=O)n(-c2ccccc2)c2ccccc12	79.1	12.7	55.1	40.7	44.8	10.1	64.2	50.1	> 100	> 100	27.5	7.53	> 100	> 100	> 100	45.3	34.5	31.9	–
O=C1N2CCc3c([nH]c4ccccc34)C23CC2CCCCC12S3 (configuration not stated)	> 100	> 100	> 100	> 100	> 100	> 100	> 100	73.1	> 100	–	> 100	> 100	> 100	> 100	> 100	> 100	> 100	> 100	> 100
Cc1nc2c(nc1C)-c1c(c3c(n1C)C(=O)CCC3)C(=O)C2=O	9.62	–	3.89	1.66	1.48	2.59	0.358	2.76	2.51	2.7	0.844	0.534	2.44	0.533	0.322	0.669	0.353	1.29	1.6
Cc1ccc(N=N/C(=N/NC(=O)c2cc(Cl)ccc2C(=O)c2ccccc2)c2ccc(N(CCC#N)CCC#N)cc2C)cc1	> 100	26.2	39.9	> 100	41.3	–	15.2	39.4	–	13.6	33.6	> 100	51.8	> 100	> 100	32.4	82	> 100	19.9
CN(C)CC1COC2Cc3ccccc3C1O2 (configuration not stated)	> 100	> 100	> 100	> 100	> 100	> 100	> 100	> 100	> 100	> 100	> 100	–	> 100	> 100	> 100	> 100	> 100	> 100	> 100
